Entries after “also recorded” stand apart in the source; their conditions may differ.
Assays:
human VR3 A−B− = target: T1, human VR3 A−B− (Homo sapiens, UniProt Q9HBA0, DEL384-443/F526I); test: Two-electrode voltage clamp of Xenopus oocytes injected with VR3 A−B− cRNA, challenged with ligands; type: cell-based; conditions: VR3 A−B− 1.5 ng injected per oocyte
T1 construct: expressed in transfected cells; host or cells: Xenopus laevis oocytes injected with in vitro transcribed cRNA
Experimental: When approximately 50% of the follicular layers were removed, Stage V and VI oocytes were selected and rinsed in media consisting of 75% OR-2 and 25% ND-96. The ND-96 contained: 100 mM NaCl, 2 mM KCl, 1 mM MgCl2, 1.8 mM CaCl2, 5 mM HEPES, 2.5 mM Na pyruvate, gentamicin (50 ug/ml), adjusted to pH 7.0 with NaOH.
(§1) Oocytes were injected with 50 nl of the human VR3 receptor RNA (0.3–5 ng) with or without co-injection of VR1 (2–3 ng). Control oocytes were injected with 50 nl of water. Oocytes were incubated for 1–13 days in ND-96 before analysis for expression of the human VR3. Incubations and collagenase digestion were carried out at room temperature. Injected oocytes were maintained in 48 well cell culture clusters (Costar; Cambridge, Mass.) at 18° C. […] The microelectrodes were filled with 3 M KCl, which had resistances of 1 and 2 MΩ. Cells were continuously perfused with ND96 at ˜10 ml/min at room temperature unless indicated. Membrane voltage was clamped at −70 mV unless indicated.

capsaicin binding site = capsaicin binding site (Rattus norvegicus, UniProt O35433); conditions: cited from earlier work
human VR3 A+B+ = target: T2, human VR3 A+B+ (Homo sapiens, UniProt Q9HBA0); test: Two-electrode voltage clamp of Xenopus oocytes injected with VR3 A+B+ cRNA, challenged with ligands; type: cell-based; set-up: key: NE: no effect; conditions: VR3 A+B+ 5 ng injected per oocyte
T2 construct: expressed in transfected cells; host or cells: Xenopus laevis oocytes injected with in vitro transcribed cRNA
Experimental: (§2) Xenopus laevis oocytes were prepared and injected using standard methods previously described and known in the art (Fraser et al., 1993). Ovarian lobes from adult female Xenopus laevis (Nasco, Fort Atkinson, Wis.) were teased apart, rinsed several times in nominally Ca-free saline containing: 82.5 mM NaCl, 2.5 mM KCl, 1 mM MgCl2, 5 mM HEPES, adjusted to pH 7.0 with NaOH (OR-2), and gently shaken in OR-2 containing 0.2% collagenase Type 1 (ICN Biomedicals, Aurora, Ohio) for 2–5 hours. When approximately 50% of the follicular layers were removed, Stage V and VI oocytes were selected and rinsed in media consisting of 75% OR-2 and 25% ND-96. The ND-96 contained: 100 mM NaCl, 2 mM KCl, 1 mM MgCl2, 1.8 mM CaCl2, 5 mM HEPES, 2.5 mM Na pyruvate, gentamicin (50 ug/ml), adjusted to pH 7.0 with NaOH. […] For in vitro transcription, pGEM HE (Liman et al., 1992) containing human VR3 was linearized with NheI and transcribed with T7 RNA polymerase (Promega) in the presence of the cap analog m7G(5′)ppp(5′)G. The synthesized cRNA was precipitated with ammonium acetate and isopropanol, and resuspended in 50 μl nuclease-free water. cRNA was quantified using formaldehyde gels (1% agarose, 1×MOPS , 3% formaldehyde) against 1,2 and 5 μl RNA markers (Gibco BRL, 0.24–9.5 Kb).
(§3) Oocytes were injected with 50 nl of the human VR3 receptor RNA (0.3–5 ng) with or without co-injection of VR1 (2–3 ng). Control oocytes were injected with 50 nl of water. Oocytes were incubated for 1–13 days in ND-96 before analysis for expression of the human VR3. Incubations and collagenase digestion were carried out at room temperature. Injected oocytes were maintained in 48 well cell culture clusters (Costar; Cambridge, Mass.) at 18° C. Whole cell agonist-induced currents were measured 1–14 days after injection with a conventional two-electrode voltage clamp (GeneClamp500, Axon Instruments, Foster City, Calif.) using standard methods previously described and known in the art (Dascal, 1987). The microelectrodes were filled with 3 M KCl, which had resistances of 1 and 2 MΩ. Cells were continuously perfused with ND96 at ˜10 ml/min at room temperature unless indicated. Membrane voltage was clamped at −70 mV unless indicated.
(§4) Oocytes were challenged with a variety of ligands, low pH, and depolarizing as well as hyperpolarizing voltage steps but there were no detectable differences in membrane conductance between human VR3-expressing oocytes and control oocytes [see Table 1]. However, human VR3 injected oocytes had properties that were different from controls in 4 respects. First, injection of VR3 A+B− cRNA caused oocytes to die. […] Second, all three isoforms of VR3 enhanced the heat-induced response (FIG. 10). Third, A+B− co-injection with human VR1 produced a ruthenium red sensitive perfusion-induced current (Iperfusion) (FIG. 11).

human VR3 A+B− = target: T3, human VR3 A+B− (Homo sapiens, UniProt Q9HBA0, F526I); test: Two-electrode voltage clamp of Xenopus oocytes injected with VR3 A+B− cRNA, challenged with ligands; type: cell-based; set-up: key: NE: no effect
T3 construct: expressed in transfected cells; host or cells: Xenopus laevis oocytes injected with in vitro transcribed cRNA
Experimental: as §2, §3, §4

VR2 = target: T4, VR2 (Rattus norvegicus, UniProt Q9WUD2); conditions: noxious temperatures (>53 deg C.), oocytes and HEK cells, cited from earlier work
T4 construct: host or cells: oocytes and HEK cells (as reported)
T4 sequence (Q9WUD2 1-761): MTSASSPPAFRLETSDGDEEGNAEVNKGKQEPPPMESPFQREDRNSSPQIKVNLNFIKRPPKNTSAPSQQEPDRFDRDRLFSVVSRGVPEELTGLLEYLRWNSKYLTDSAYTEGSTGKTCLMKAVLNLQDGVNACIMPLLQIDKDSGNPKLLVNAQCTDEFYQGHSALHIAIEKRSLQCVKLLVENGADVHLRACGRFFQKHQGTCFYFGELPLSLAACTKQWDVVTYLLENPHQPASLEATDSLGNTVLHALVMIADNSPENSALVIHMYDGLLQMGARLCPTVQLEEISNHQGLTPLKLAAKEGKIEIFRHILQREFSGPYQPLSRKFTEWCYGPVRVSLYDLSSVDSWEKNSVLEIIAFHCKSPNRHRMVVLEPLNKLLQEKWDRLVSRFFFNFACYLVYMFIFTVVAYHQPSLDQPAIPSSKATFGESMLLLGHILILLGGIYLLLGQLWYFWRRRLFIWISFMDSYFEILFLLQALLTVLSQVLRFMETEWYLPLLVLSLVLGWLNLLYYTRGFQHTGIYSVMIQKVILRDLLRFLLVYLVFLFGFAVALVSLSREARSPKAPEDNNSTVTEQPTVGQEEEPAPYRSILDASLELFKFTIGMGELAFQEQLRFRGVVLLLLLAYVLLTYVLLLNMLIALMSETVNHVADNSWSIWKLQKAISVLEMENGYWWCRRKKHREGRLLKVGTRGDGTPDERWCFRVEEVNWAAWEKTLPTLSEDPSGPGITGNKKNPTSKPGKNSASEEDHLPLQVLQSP

[1] = target: T5, human VR1 together with human VR3 A+B− (Homo sapiens, UniProt Q8NER1); test: Capsaicin induced currents in oocytes expressing human VR1 with human VR3 A+B−; type: cell-based; conditions: 1 uM capsaicin; VR1 and VR3 A+B− cRNA at equal ratios (2.9 ng each); holding voltage +50 mV
T5 construct: expressed in transfected cells; host or cells: Xenopus laevis oocytes co-injected with VR1 and VR3 A+B− cRNA (2.9 ng each)
Experimental: as §1

[2] = 1 uM, VR3 A+B− 3.25–4 ng injected per oocyte (also 0.4 ng)
[3] = 10 uM, VR3 A+B− 3.25–4 ng injected per oocyte (also 0.4 ng)
[4] = 100 uM, VR3 A+B− 3.25–4 ng injected per oocyte

T3 sequence (Q9HBA0 whole entry F526I): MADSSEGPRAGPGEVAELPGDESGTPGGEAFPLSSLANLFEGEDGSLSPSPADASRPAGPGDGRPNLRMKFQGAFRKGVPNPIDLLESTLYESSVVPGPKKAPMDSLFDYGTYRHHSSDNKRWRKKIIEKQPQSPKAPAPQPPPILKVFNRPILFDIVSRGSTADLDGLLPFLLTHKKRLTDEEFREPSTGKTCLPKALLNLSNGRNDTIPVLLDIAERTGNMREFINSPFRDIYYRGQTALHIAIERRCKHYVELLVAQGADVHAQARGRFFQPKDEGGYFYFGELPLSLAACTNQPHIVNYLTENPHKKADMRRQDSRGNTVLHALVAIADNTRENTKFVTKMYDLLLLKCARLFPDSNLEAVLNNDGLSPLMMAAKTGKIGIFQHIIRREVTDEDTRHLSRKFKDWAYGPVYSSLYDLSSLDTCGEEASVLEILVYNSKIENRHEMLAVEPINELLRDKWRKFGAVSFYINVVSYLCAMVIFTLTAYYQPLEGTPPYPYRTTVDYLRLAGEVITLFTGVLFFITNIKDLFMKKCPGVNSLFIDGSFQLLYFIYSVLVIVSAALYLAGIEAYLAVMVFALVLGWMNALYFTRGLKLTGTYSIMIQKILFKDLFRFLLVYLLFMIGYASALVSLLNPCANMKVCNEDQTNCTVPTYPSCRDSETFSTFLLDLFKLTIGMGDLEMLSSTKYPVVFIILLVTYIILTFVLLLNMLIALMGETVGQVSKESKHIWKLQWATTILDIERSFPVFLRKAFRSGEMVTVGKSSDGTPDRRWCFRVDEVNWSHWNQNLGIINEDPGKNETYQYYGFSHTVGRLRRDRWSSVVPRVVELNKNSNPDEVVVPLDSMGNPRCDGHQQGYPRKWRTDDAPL
T1 sequence (Q9HBA0 with tags, fused parts or gaps DEL384-443/F526I): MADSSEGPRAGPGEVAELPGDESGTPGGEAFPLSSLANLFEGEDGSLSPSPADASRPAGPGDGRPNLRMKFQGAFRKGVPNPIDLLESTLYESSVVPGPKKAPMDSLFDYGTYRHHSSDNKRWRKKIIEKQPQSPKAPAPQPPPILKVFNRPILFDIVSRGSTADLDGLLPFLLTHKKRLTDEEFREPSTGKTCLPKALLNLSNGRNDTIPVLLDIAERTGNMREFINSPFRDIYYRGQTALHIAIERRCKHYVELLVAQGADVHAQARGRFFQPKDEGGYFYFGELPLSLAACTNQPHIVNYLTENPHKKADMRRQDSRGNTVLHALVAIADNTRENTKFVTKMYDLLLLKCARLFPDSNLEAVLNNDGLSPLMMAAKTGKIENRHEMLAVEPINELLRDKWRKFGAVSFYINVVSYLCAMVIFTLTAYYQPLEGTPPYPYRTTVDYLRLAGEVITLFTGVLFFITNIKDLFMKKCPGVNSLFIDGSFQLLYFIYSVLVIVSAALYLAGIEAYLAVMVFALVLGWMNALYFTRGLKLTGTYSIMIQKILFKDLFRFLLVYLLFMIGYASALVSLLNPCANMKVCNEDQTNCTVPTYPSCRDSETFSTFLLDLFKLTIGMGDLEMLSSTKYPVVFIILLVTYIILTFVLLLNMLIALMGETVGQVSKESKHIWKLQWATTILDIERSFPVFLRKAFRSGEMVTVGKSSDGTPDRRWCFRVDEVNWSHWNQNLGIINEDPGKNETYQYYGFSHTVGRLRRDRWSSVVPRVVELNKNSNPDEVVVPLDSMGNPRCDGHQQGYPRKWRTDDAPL
T2 sequence (Q9HBA0 with tags, fused parts or gaps): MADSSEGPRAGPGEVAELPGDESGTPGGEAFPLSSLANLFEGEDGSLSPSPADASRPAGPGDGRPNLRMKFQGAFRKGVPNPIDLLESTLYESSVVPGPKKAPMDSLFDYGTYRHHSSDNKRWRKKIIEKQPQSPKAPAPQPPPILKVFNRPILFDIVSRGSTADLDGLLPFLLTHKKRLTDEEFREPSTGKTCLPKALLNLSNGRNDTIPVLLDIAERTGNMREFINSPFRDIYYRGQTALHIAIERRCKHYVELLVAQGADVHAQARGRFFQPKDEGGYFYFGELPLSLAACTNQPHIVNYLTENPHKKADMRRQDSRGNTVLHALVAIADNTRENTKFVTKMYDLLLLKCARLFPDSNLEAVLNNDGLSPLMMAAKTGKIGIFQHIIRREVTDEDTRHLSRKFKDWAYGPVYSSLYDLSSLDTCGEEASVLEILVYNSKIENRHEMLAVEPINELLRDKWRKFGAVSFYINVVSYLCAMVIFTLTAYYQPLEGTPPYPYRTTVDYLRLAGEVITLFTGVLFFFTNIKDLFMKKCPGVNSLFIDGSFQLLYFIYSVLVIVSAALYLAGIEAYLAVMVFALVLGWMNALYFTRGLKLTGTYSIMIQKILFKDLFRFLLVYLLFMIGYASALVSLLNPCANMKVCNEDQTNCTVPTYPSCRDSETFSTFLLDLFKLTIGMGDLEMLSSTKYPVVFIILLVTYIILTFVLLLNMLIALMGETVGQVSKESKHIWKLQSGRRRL
T5 sequence (Q8NER1 whole entry): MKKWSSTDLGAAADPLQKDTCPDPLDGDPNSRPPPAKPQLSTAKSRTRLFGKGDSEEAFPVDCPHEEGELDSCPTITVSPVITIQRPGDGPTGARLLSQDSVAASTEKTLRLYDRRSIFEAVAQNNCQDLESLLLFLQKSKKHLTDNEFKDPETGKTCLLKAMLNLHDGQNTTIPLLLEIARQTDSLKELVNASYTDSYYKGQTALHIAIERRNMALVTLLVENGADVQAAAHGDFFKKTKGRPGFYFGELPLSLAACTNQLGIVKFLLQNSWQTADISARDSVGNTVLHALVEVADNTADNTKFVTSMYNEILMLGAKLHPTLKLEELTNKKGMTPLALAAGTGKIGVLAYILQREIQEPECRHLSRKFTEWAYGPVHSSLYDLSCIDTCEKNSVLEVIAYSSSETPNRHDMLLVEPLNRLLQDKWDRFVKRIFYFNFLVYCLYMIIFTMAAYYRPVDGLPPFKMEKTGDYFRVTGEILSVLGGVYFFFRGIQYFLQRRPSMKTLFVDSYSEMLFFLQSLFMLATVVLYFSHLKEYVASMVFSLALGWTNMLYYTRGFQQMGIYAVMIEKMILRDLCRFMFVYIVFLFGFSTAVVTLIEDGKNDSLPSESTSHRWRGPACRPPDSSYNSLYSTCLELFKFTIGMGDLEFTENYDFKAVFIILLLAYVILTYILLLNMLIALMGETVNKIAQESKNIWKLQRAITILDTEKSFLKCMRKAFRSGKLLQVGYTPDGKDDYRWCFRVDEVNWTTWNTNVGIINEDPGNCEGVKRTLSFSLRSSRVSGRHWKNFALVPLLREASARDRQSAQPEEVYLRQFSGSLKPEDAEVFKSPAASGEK
Sequence of capsaicin binding site (O35433 whole entry): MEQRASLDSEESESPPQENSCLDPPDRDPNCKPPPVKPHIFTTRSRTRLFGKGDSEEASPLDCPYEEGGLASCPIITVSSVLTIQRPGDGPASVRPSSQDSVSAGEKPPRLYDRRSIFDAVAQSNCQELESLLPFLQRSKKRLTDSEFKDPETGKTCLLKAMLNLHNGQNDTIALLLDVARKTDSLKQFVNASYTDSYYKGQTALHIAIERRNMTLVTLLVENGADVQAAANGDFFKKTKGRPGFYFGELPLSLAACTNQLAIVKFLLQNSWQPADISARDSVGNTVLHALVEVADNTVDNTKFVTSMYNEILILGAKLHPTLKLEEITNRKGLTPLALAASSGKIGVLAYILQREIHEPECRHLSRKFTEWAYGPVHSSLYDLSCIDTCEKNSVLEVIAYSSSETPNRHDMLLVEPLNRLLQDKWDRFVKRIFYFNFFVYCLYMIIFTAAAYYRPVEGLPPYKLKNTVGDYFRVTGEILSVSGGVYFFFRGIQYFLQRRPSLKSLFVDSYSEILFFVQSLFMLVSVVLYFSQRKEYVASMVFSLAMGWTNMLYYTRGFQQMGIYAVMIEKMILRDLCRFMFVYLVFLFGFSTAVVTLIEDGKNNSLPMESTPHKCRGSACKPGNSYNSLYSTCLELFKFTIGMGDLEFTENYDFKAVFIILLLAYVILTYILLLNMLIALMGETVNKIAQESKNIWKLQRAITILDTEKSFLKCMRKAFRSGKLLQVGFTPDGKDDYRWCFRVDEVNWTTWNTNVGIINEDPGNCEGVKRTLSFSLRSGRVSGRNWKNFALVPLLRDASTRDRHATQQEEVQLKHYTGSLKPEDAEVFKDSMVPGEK

Compound: C=C(C)[C@]12C[C@@H](C)[C@@]34O[C@](Cc5ccccc5)(O[C@@H]1[C@@H]3C=C(COC(=O)Cc1ccc(O)c(OC)c1)C[C@]1(O)C(=O)C(C)=C[C@@H]41)O2 [Resiniferatoxin, resiniferatoxin]
- Effect of stimulus on membrane conductance vs control oocytes (human VR3 A−B−; 1 uM): NE: n = 3
- Binding affinity at the capsaicin binding site (capsaicin binding site): nanomolar affinity
- Effect of stimulus on membrane conductance vs control oocytes (human VR3 A+B+; 1 uM): NE: n = 3
- Effect of stimulus on membrane conductance vs control oocytes (human VR3 A+B−; [2]): NE: n = 3 (n = 1 0.4 ng)

Compound: C=CCc1ccc(O)c(OC)c1 [Eugenol]
- Effect of stimulus on membrane conductance vs control oocytes (human VR3 A−B−; 10 uM): NE: n = 3
- Effect of stimulus on membrane conductance vs control oocytes (human VR3 A+B+; 10 uM): NE: n = 3
- Effect of stimulus on membrane conductance vs control oocytes (human VR3 A+B−; [3]): NE: n = 3 (n = 3 0.4 ng)

Compound: CCCCC/C=C\C/C=C\C/C=C\C/C=C\CCCC(=O)NCCO [Anandamide]
- Effect of stimulus on membrane conductance vs control oocytes (human VR3 A−B−; 1.15 uM): NE: n = 1
- Effect of stimulus on membrane conductance vs control oocytes (human VR3 A+B−; 1.15 uM, VR3 A+B− 0.4 ng injected): NE: n = 3 (0.4 ng

Compound: CCCCCCCC/C=C\CCCCCCCC(=O)NCc1ccc(O)c(OC)c1 [Olvanil]
- Effect of stimulus on membrane conductance vs control oocytes (human VR3 A−B−; 10 uM): NE: n = 3
- Effect of stimulus on membrane conductance vs control oocytes (human VR3 A+B+; 10 uM): NE: n = 3
- Effect of stimulus on membrane conductance vs control oocytes (human VR3 A+B−; [3]): NE: n = 3 (n = 1 0.4 ng)

Compound: Oc1cc2c(cc1O)CN(C(=S)NCCc1ccc(Cl)cc1)CCC2 [CPZ, capsazepine]
- Sensitivity of the VR2 heat response to CPZ (VR2): not sensitive

Compound: COc1cc(CNC(=O)CCCCC=CC(C)C)ccc1O [Capsaicin, 8-methyl-N-vanillyl-6-nonenamide]
- Effect of stimulus on membrane conductance vs control oocytes (human VR3 A−B−; 1 uM): NE: n = 3
- Effect of stimulus on membrane conductance vs control oocytes (human VR3 A+B+; 1 uM): NE: n = 3
- Effect of stimulus on membrane conductance vs control oocytes (human VR3 A+B−; [2]): NE: n = 3 (n = 3 0.4 ng)
- Response to capsaicin when VR1 is co-expressed with VR3 A+B−, compared with VR1 alone [1]: altered the responsiveness; also recorded: diminished

Compound: NCCc1ccccc1 [β-phenylethylamine]
- Effect of stimulus on membrane conductance vs control oocytes (human VR3 A+B−; [4]): NE: n = 2

Compound: COc1ccccc1O [Guiaicol]
- Effect of stimulus on membrane conductance vs control oocytes (human VR3 A−B−; 10 uM): NE: n = 3
- Effect of stimulus on membrane conductance vs control oocytes (human VR3 A+B+; 10 uM): NE: n = 3
- Effect of stimulus on membrane conductance vs control oocytes (human VR3 A+B−; [3]): NE: n = 3 (n = 1 0.4 ng)

Compound: O=C(O)CCCO [γ-hydroxybutyrate]
- Effect of stimulus on membrane conductance vs control oocytes (human VR3 A+B−; [4]): NE: n = 2

Compound: CCCCC[C@H](O)CC(=O)CCc1ccc(O)c(OC)c1 [Gingerol]
- Effect of stimulus on membrane conductance vs control oocytes (human VR3 A−B−; 10 uM): NE: n = 3
- Effect of stimulus on membrane conductance vs control oocytes (human VR3 A+B+; 10 uM): NE: n = 3
- Effect of stimulus on membrane conductance vs control oocytes (human VR3 A+B−; [3]): NE: n = 3 (n = 1 0.4 ng)

Compound: N.N.N.N.N.N.N.N.N.N.N.N.N.N.[Cl-].[Cl-].[Cl-].[Cl-].[Cl-].[Cl-].[O-2].[O-2].[Ru+3].[Ru+3].[Ru+4] [ruthenium red]
- Block of the VR2 heat response (VR2; 10 μM ruthenium red): nearly completely blocked

Compound: CCCCC/C=C\C/C=C\C/C=C\C/C=C\CCCC(=O)O [Arachadonic acid]
- Effect of stimulus on membrane conductance vs control oocytes (human VR3 A−B−; 10 uM): NE: n = 3

From patent US7186803B2, “Human vanilloid receptor VR3 protein” (Ortho-McNeil Pharmaceutical, Inc., priority 2000, dated 2007)
